Laboratory results taken from PubChem BioAssay AID256 (DTP/NCI, 2004).
Values joined by “and” are separate entries in the source; they are usually repeats but may differ in a detail not shown here. Equal entries are not always repeated. Toxic doses and inconclusive results are not listed.

System: CD2F1 mice, L1210 leukemia ip, survival T/C
Test: NCI In Vivo Anticancer Drug Screen. Data for tumor model L1210 Leukemia (intraperitoneal) in CD2F1 (CDF1) mice
Conditions: endpoint: mean survival time, higher = longer survival
In short: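 Mice carrying a transplanted tumor received test compound or vehicle alone. The value is the measurement in the treated group divided by that in the vehicle-treated control group.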

[1] = dose: 50.0 mg/kg/injection, schedule: Q01DX009 (ip), vehicle: saline with Tween-80
[2] = dose: 100.0 mg/kg/injection, schedule: Q01DX009 (ip), vehicle: saline with Tween-80
[3] = dose: 200.0 mg/kg/injection, schedule: Q01DX009 (ip), vehicle: saline with Tween-80
[4] = dose: 50.0 mg/kg/injection, schedule: Q01DX009 (ip), vehicle: saline
[5] = dose: 200.0 mg/kg/injection, schedule: Q01DX009 (ip), vehicle: saline
[6] = dose: 100.0 mg/kg/injection, schedule: Q04DX003 (ip), vehicle: saline with Tween-80
[7] = dose: 200.0 mg/kg/injection, schedule: Q04DX003 (ip), vehicle: saline with Tween-80

CSc1nc(N)c2c(ncn2C2OC(CO)C(O)C2O)n1 (centres undefined)
T/C (dose: 100.0 mg/kg/injection, schedule: Q01DX001 (ip), vehicle: saline): 105 % of control
T/C (dose: 200.0 mg/kg/injection, schedule: Q01DX001 (ip), vehicle: saline): 100 % of control
T/C (dose: 400.0 mg/kg/injection, schedule: Q01DX001 (ip), vehicle: saline): 97 % of control

CC(C)(C)NC(=O)Cc1ccccc1
T/C [1]: 95 % of control
T/C [2]: 97 % of control
T/C [3]: 95 % of control

CCC[CH2][Sn]1([CH2]CCC)[O]C2C(CO)OC(n3ccc(=O)[nH]c3=O)C2[O]1 (centres undefined)
T/C (dose: 1.56 mg/kg/injection, schedule: Q01DX005 (ip), vehicle: other): 98 % of control
T/C (dose: 3.13 mg/kg/injection, schedule: Q01DX005 (ip), vehicle: other): 102 % of control
T/C (dose: 6.25 mg/kg/injection, schedule: Q01DX005 (ip), vehicle: other): 112 % of control
T/C (dose: 12.5 mg/kg/injection, schedule: Q01DX005 (ip), vehicle: other): 100 % of control

BrCC[CH2][Sn]([Br])([Br])[Br]
T/C [4]: 103 % of control
T/C (dose: 100.0 mg/kg/injection, schedule: Q01DX009 (ip), vehicle: saline): 91 % of control
T/C [5]: 95 % of control

CN(C)Cc1cc(C(C)(C)C)cc(CN(C)C)c1O
T/C (dose: 2.5 mg/kg/injection, schedule: Q01DX009 (ip), vehicle: saline with Tween-80): 98 % of control
T/C (dose: 5.0 mg/kg/injection, schedule: Q01DX009 (ip), vehicle: saline with Tween-80): 96 % of control
T/C (dose: 10.0 mg/kg/injection, schedule: Q01DX009 (ip), vehicle: saline with Tween-80): 95 % of control and 100 % of control

CCOP(=S)(N1CC1)N1CC1
T/C (dose: 100.0 mg/kg/injection, schedule: Q01DX009 (ip), vehicle: other): 94 % of control
T/C (dose: 200.0 mg/kg/injection, schedule: Q01DX009 (ip), vehicle: other): 100 % of control
T/C (dose: 400.0 mg/kg/injection, schedule: Q01DX009 (ip), vehicle: other): 90 % of control

COC1OC2COc3ccccc3OC2C(N)C1N(C)c1ccccc1 (centres undefined)
T/C (dose: 75.0 mg/kg/injection, schedule: Q01DX001 (ip), vehicle: saline with Tween-80): 100 % of control
T/C (dose: 150.0 mg/kg/injection, schedule: Q01DX001 (ip), vehicle: saline with Tween-80): 97 % of control

CC12CCC(=O)C=C1CCC1C2CCC2(C)C(C(=O)O)CCC12 (centres undefined)
T/C [6]: 102 % of control
T/C [7]: 96 % of control

CNC(=O)OCC(COc1cc(C)ccc1C(C)C)OC(=O)NC (centres undefined)
T/C (dose: 100.0 mg/kg/injection, schedule: Q04DX002 (ip), vehicle: saline with Tween-80): 86 % of control
T/C (dose: 200.0 mg/kg/injection, schedule: Q04DX002 (ip), vehicle: saline with Tween-80): 93 % of control
T/C (dose: 400.0 mg/kg/injection, schedule: Q04DX002 (ip), vehicle: saline with Tween-80): 89 % of control

Cc1ccccc1N=C(N)Nc1ccccc1C
T/C (dose: 10.0 mg/kg/injection, schedule: Q04DX003 (ip), vehicle: saline with Tween-80): 98 % of control

NC1=NC(=O)N2CC12 (centres undefined)
T/C (dose: 12.5 mg/kg/injection, schedule: Q01DX009 (ip), vehicle: other): 100 % of control
T/C (dose: 12.5 mg/kg/injection, schedule: Q01DX009 (ip), vehicle: saline): 107 % of control
T/C (dose: 25.0 mg/kg/injection, schedule: Q01DX009 (ip), vehicle: other): 100 % of control
T/C (dose: 25.0 mg/kg/injection, schedule: Q01DX009 (ip), vehicle: saline): 106 % of control and 110 % of control
T/C (dose: 50.0 mg/kg/injection, schedule: Q01DX009 (ip), vehicle: other): 105 % of control
T/C [4]: 115 % of control and 110 % of control
T/C [5]: 156 % of control and 173 % of control

Cc1[nH]c(=S)[nH]c(=O)c1CCO
T/C (dose: 100.0 mg/kg/injection, schedule: Q01DX001 (ip), vehicle: saline with Tween-80): 105 % of control
T/C [2]: 101 % of control
T/C (dose: 200.0 mg/kg/injection, schedule: Q01DX001 (ip), vehicle: saline with Tween-80): 95 % of control
T/C [3]: 103 % of control
T/C (dose: 400.0 mg/kg/injection, schedule: Q01DX001 (ip), vehicle: saline with Tween-80): 100 % of control
T/C (dose: 400.0 mg/kg/injection, schedule: Q01DX009 (ip), vehicle: saline with Tween-80): 101 % of control

O=C(Cc1ccccc1)c1ccc(O)cc1
T/C [6]: 100 % of control
T/C [7]: 103 % of control
T/C (dose: 400.0 mg/kg/injection, schedule: Q04DX003 (ip), vehicle: saline with Tween-80): 111 % of control

CSc1ncnc2c1c(C#N)cn2C1OC(CO)C(O)C1O (centres undefined)
T/C (dose: 32.0 mg/kg/injection, schedule: Q01DX009 (ip), vehicle: saline): 124 % of control
T/C (dose: 53.0 mg/kg/injection, schedule: Q01DX009 (ip), vehicle: saline): 87 % of control

C[CH2][Sn]([I])([CH2]C)[CH2]C
T/C (dose: 6.25 mg/kg/injection, schedule: Q01DX009 (ip), vehicle: saline with Tween-80): 89 % of control

O=[N+]([O-])O.[NH-]C1CCCCC1[NH-].[NH-]C1CCCCC1[NH-].[OH-].[OH-].[Pt+4].[Pt+4] (centres undefined)
T/C (dose: 1.25 mg/kg/injection, schedule: Q04DX003 (ip), vehicle: water): 110 % of control

CN(C)CCCC#N
T/C [1]: 96 % of control
T/C [2]: 102 % of control
